{"source": "patent US4904678A", "about": "“Sickle cell anemia control” (Norris; Jerome J., priority 1987, dated 1990)", "origin": "cited, not measured here", "tested_on": "erythrocytes", "conditions": "about 4 mols of potassium cyanate incorporated per mol of hemoglobin tetramer"}
{"smiles": "N#CO", "note": "[potassium cyanate]", "values": [{"measurement": "Erythrocytes prevented from sickling", "result": "up to 80%"}]}
